This passage reports EC50 results from US10604509B2, “Nrf2 regulators” (GlaxoSmithKline Intellectual Property Development Limited, priority 2015, dated 2020).

Structures are written as SMILES. Counter-ions that a name gives are not always drawn. Some results are limits rather than exact numbers.

In this experiment the test system is NQO1 specific enzyme activity in BEAS-2B cells. The experiment can be described thus: BEAS-2B NQO1 MTT assay. Type of experiment: cell-based. Conditions: Homo sapiens, BEAS-2B, 48 h, BEAS-2B cells, 48 hours with compound, MTT readout; read-out: EC50 of NQO1 specific activity induction. In outline: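 NQO1 specific activity, an NRF2 activation marker, read kinetically as absorbance change at 570 nm for 30 min after MTT cocktail addition to crude lysates of BEAS-2B cells exposed 48 h to compound. Three-parameter fit of Delta OD/min against log concentration gives EC50; lysate portion used for Cell Titer Glo.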
For orientation: Tetrazolium dyes change colour on reduction, which living cells bring about.
The EC50 is the concentration giving half of the maximal effect. For the compound `CC[C@@H]1CN(Cc2cc([C@H](CC(=O)O)c3ccc4c(nnn4CC)c3F)ccc2C)Cc2cccc(F)c2O1` [Example 52, (S)-3-(1-Ethyl-4-fluoro-1H-benzo[d][1,2,3]triazol-5-yl)-3-(3-(((R)-2-ethyl-9-fluoro-2,3-dihdyrobenzo[f][1,4]oxazepin-4(5H)-yl)methyl)-4-methylphenyl)propanoic acid, 0.5formic acid salt], the EC50 lay in the range of 1 to 10 nM.
The same measure for `Cc1ccc(C(c2ccc3c(nnn3C)c2C)C(C)(C)C(=O)O)cc1Cn1ccnc1CN1CCC(C)CC1` (centres unmarked) [Example 139, 3-(1,4-Dimethyl-1H-benzo[d][1,2,3]triazol-5-yl)-2,2-dimethyl-3-(4-methyl-3-((2-((4-methylpiperidin-1-yl)methyl)-1H-imidazol-1-yl)methyl)phenyl) propanoic acid]: 1000 to 10000 nM.
The same measure for `Cc1ccc(C(CC(=O)O)c2ccc3c(nnn3C)c2C)cc1CN1Cc2ccccc2OC2(CC2)C1` (centres unmarked) [Example 243, 3-(3-((3H-Spiro[benzo[f][1,4]oxazepine-2,1′-cyclopropan]-4(5H)-yl)methyl)-4-methylphenyl)-3-(1,4-dimethyl-1H-benzo[d][1,2,3]triazol-5-yl)propanoic Acid]: 100 to 1000 nM.
The same measure for `CC[C@@H]1CN(Cc2cc(C(CCc3cn(CC)nn3)CC(=O)O)ccc2Cl)Cc2ncccc2O1` (stereo partly drawn) [Example 231, 3-(4-Chloro-3-(((R)-2-ethyl-2,3-dihydropyrido[2,3-f][1,4]oxazepin-4(5H)-yl)methyl)phenyl)-5-(1-ethyl-1H-1,2,3-triazol-4-yl)pentanoic Acid]: 100 to 1000 nM.
Consider `Cc1ccc(C(CC(=O)O)c2ccc3c(nnn3C)c2C)cc1CN1Cc2cc(C#N)ccc2OC(C)(C)C1` (single isomer, unassigned) [Example 171], for which the EC50 was in the range of 10 to 100 nM.
As to `CC[C@@H]1CN(Cc2cc([C@H](c3ccc4c(nnn4C)c3C)[C@@H](C)C(=O)O)ccc2C)Cc2ccccc2O1` [Example 40, (2R,3R)-3-(1,4-Dimethyl-1H-benzo[d][1,2,3]triazol-5-yl)-3-(3-(((R)-2-ethyl-2,3-dihydrobenzo[f][1,4]oxazepin-4(5H)-yl)methyl)-4-methylphenyl)-2-methylpropanoic Acid], the EC50 lay in the range of 10 to 100 nM.
The same measure for `Cc1ccc(C(c2ccc3c(nnn3C)c2C)C(C)(C)C(=O)O)cc1CN1CCCn2cncc2C1` (centres unmarked) [Example 37, 3-(3-((6,7-Dihydro-5H-imidazo[1,5-a][1,4]diazepin-8(9H)-yl)methyl)-4-methylphenyl)-3-(1,4-dimethyl-1H-benzo[d][1,2,3]triazol-5-yl)-2,2-dimethylpropanoate, Sodium salt]: 1000 to 10000 nM.
For `CC[C@@H]1CN(Cc2cc([C@H](CC(=O)O)c3ccc4c(nnn4CC)c3F)ccc2C)Cc2ccccc2O1` (relative stereo) [compound 182, rel-(S)-3-(3-(((R)-2-Ethyl-2,3-dihydrobenzo[f][1,4]oxazepin-4(5H)-yl)methyl)-4-methylphenyl)-3-(1-ethyl-4-fluoro-1H-benzo[d][1,2,3]triazol-5-yl)propanoic acid] the value was 100 to 1000 nM.
The same measure for `CCn1nnc2c(F)c([C@H](c3ccc(C)c(CN4Cc5ncccc5OC(C)(C)C4)c3)[C@@H](C)C(=O)O)ccc21` [Example 190, (2R,3S)-3-(3-((2,2-Dimethyl-2,3-dihydropyrido[2,3-f][1,4]oxazepin-4(5H)-yl)methyl)-4-methylphenyl)-3-(1-ethyl-4-fluoro-1H-benzo[d][1,2,3]triazol-5-yl)-2-methylpropanoic Acid]: 1 to 10 nM; for `CC[C@@H]1CN(Cc2cc(C(CC(=O)O)c3ccc4c(nnn4CC)c3F)ccc2C)Cc2ccccc2O1` (single isomer, unassigned) [Example 181]: 10 to 100 nM; for `Cc1ccc2c(c1)OC(C)(C)CN(Cc1cc([C@H](CC(=O)O)c3ccc4c(nnn4C)c3C)ccc1C)C2` [Example 180, (S)-3-(1,4-Dimethyl-1H-benzo[d][1,2,3]triazol-5-yl)-3-(4-methyl-3-((2,2,8-trimethyl-2,3-dihydrobenzo[f][1,4]oxazepin-4(5H)-yl)methyl)phenyl) propanoic acid]: 10 to 100 nM.
In the case of `Cc1ccc(C(CC(=O)O)c2ccc3c(nnn3C)c2C)cc1Cn1ccnc1CC1CCCCCC1` (centres unmarked) [Example 146, 3-(3-((2-(Cycloheptylmethyl)-1H-imidazol-1-yl)methyl)-4-methylphenyl)-3-(1,4-dimethyl-1H-benzo[d][1,2,3]triazol-5-yl)propanoic acid, formic acid salt], the EC50 fell in the range of 10 to 100 nM.
As for `CC[C@@H]1CN(Cc2cc(C(CC(=O)O)c3ccc4c(nnn4C)c3C)ccc2C)Cc2ccncc2O1` (stereo partly drawn) [Example 90, 3-(1,4-Dimethyl-1H-benzo[d][1,2,3]triazol-5-yl)-3-(3-(((R)-2-ethyl-2,3-dihydropyrido[4,3-f][1,4]oxazepin-4(5H)-yl)methyl)-4-methylphenyl)propanoic acid], the 50% effective concentration (EC50) lay within 10 to 100 nM.
For the compound `CC[C@@H]1CN(Cc2cc(C(c3ccc4c(nnn4C)c3C)C(C)(C)C(=O)O)ccc2C)Cc2cccc(F)c2O1` (stereo partly drawn) [Example 34, 3-(1,4-Dimethyl-1H-benzo[d][1,2,3]triazol-5-yl)-3-(3-(((R)-2-ethyl-9-fluoro-2,3-dihydrobenzo[f][1,4]oxaz-epin-4(5H)-yl)methyl)-4-methylphenyl)-2,2-dimethylpropanoic acid, formic acid salt], the EC50 lay within 100 to 1000 nM.
The same measure for `Cc1ccc(C(CC(=O)O)c2ccc3c(nnn3C)c2C)cc1Cn1ccnc1CN1CCC(F)(F)CC1` (centres unmarked) [Example 149, 3-(3-((2-((4,4-Difluoropiperidin-1-yl)methyl)-1H-imidazol-1-yl)methyl)-4-methylphenyl)-3-(1,4-dimethyl-1H-benzo[d][1,2,3]triazol-5-yl)propanoic acid]: 100 to 1000 nM.
The same measure for `CCC1CCN(Cc2nccn2Cc2cc(C(c3ccc4c(nnn4C)c3C)C(C)(C)C(=O)O)ccc2Cl)CC1` (centres unmarked) [Example 236, 3-(4-Chloro-3-((2-((4-ethylpiperidin-1-yl)methyl)-1H-imidazol-1-yl)methyl)phenyl)-3-(1,4-dimethyl-1H-benzo[d][1,2,3]triazol-5-yl)-2,2-dimethylpropanoic Acid]: under 1 nM; for `CCC1CCN(Cc2nccn2Cc2cc([C@@H](c3ccc4c(nnn4C)c3C)C(C)(C)C(=O)O)ccc2C)CC1` [Example 122, (S)-3-(1,4-Dimethyl-1H-benzo[d][1,2,3]triazol-5-yl)-3-(3-((2-((4-ethylpiperidin-1-yl)methyl)-1H-imidazol-1-yl)methyl)-4-methylphenyl)-2,2-dimethylpropanoate, Sodium salt]: 10 to 100 nM; for `Cc1ccc([C@@H](CC(=O)O)c2ccc3c(nnn3C)c2C)cc1CN1Cc2ccccc2OC(C)(C)C1` [Example 110, (R)-3-(1,4-dimethyl-1H-benzo[d][1,2,3]triazol-5-yl)-3-(3-((2,2-dimethyl-2,3-dihydrobenzo[f][1,4]oxazepin-4(5H)-yl)methyl)-4-methylphenyl)propanoic Acid, Formic Acid Salt]: under 1 nM.
Take `CCn1nnc2c(C)c([C@@H](c3ccc(C)c(CN4Cc5ccccc5OC(C)(C)C4)c3)C(C)(C)C(=O)O)ccc21` (single isomer, unassigned; enantiomer a) [Example 206]: the EC50 was in the range of 1 to 10 nM.
For `CCC1CCN(Cc2nccn2Cc2cc(C(CCc3cn(CC)nn3)C(C)C(=O)O)ccc2C)CC1` (single isomer, unassigned; isomer 1) [Example 225, 5-(1-Ethyl-1H-1,2,3-triazol-4-yl)-3-(3-((2-((4-ethylpiperidin-1-yl)methyl)-1H-imidazol-1-yl)methyl)-4-methylphenyl)-2-methylpentanoic Acid, Trifluoroacetic Acid Salt (Compound 9, Isomer 1,Scheme A)] the value was 10 to 100 nM.
The same measure for `COc1ccc(CN(Cc2cc(C(CC(=O)O)c3ccc4c(nnn4C)c3C)ccc2C)C2CC2)cc1` (centres unmarked) [Example 20, 3-(3-((cyclopropyl(4-methoxybenzyl)amino)meth-yl)-4-methylphenyl)-3-(1,4-dimethyl-1H-benzo[d][1,2,3]triazol-5-yl)propanoic acid, formic acid salt]: 100 to 1000 nM; for `Cc1ccc(C(CC(=O)O)c2ccc3c(nnn3C)c2C)cc1CN(C)Cc1ccc(Br)cc1` (centres unmarked) [Example 16, Ammonium 3-(3-(((4-bromobenzyl)(methyl)amino)methyl)-4-methylphenyl)-3-(1,4-dimethyl-1H-benzo[d][1,2,3]triazol-5-yl)propanoate]: 1000 to 10000 nM.
The same measure for `CC[C@@H]1CN(Cc2cc([C@@H](CC(=O)O)c3ccc4c(nnn4C)c3C)ccc2C)Cc2ccccc2O1` [Example 51, (R)-3-(1,4-Dimethyl-1H-benzo[d][1,2,3]triazol-5-yl)-3-(3-(((R)-2-ethyl-2,3-dihdyrobenzo[f][1,4]oxazepin-4(5H)-yl)methyl)-4-methylphenyl)propanoic acid, formic acid salt]: 100 to 1000 nM; for `Cc1ccc(C(c2ccc3c(nnn3C)c2C)C(C)(C)C(=O)O)cc1Cn1ccnc1CN1CCCOCC1` (centres unmarked) [Example 138, 3-(3-((2-((1,4-Oxazepan-4-yl)methyl)-1H-imidazol-1-yl)methyl)-4-methylphenyl)-3-(1,4-dimethyl-1H-benzo[d][1,2,3]triazol-5-yl)-2,2-dimethylpropanoic Acid]: 1000 to 10000 nM.
On to `CCC1CCN(Cc2nccn2Cc2cc([C@@H](c3ccc4c(nnn4CC)c3C)C(C)(C)C(=O)O)ccc2C)CC1` [Example 239, (S)-3-(1-Ethyl-4-methyl-1H-benzo[d][1,2,3]triazol-5-yl)-3-(3-((2-((4-ethylpiperidin-1-yl)methyl)-1H-imidazol-1-yl)methyl)-4-methylphenyl)-2,2-dimethylpropanoic Acid], for which the EC50 is under 1 nM.
For `Cc1ccc(C(c2ccc3c(nnn3C)c2C)C(C)(C)C(=O)O)cc1CN1Cc2cccnc2OC(C)(C)C1` (centres unmarked) [Example 23, 3-(1,4-Dimethyl-1H-benzo[d][1,2,3]triazol-5-yl)-3-(3-((2,2-dimethyl-2,3-dihydropyrido[3,2-f][1,4]oxazepin-4(5H)-yl)methyl)-4-methylphenyl)-2,2-dimethylpropanoic Acid, Trifluoroacetic Acid] the value was 10 to 100 nM.
